Paper PMC8292346, “Dysfunction of the key ferroptosis-surveilling systems hypersensitizes mice to tubular necrosis during acute kidney injury” (Nature Communications, 2021)
Values joined by “and” are separate entries in the source; they are usually repeats but may differ in a detail not shown here. Identical values can stand only once.

Tests used:
[1] = Inhibited co-autoxidation of egg phosphatidylcholine liposomes and STY-BODIPY (radical-trapping antioxidant activity); settings: 2 µM Fer-1
Description: Inhibitors were then added (5 μl aliquots) at desired concentrations to the appropriate wells followed by vigorous mixing. […] Experiments were performed in triplicate using HPLC grade solvents and kinetic data is given as an average of three independent measurements. […]

HT29 cells = test: TSZ-induced necroptosis, 7-AAD/annexin V flow cytometry; assay type: cell-based, human; settings: HT29, TSZ; Nec-1f 10 µM
Description: (§1) To induce necroptosis in a human cell line, HT29 cells were stimulated at the indicated time points with 20 ng/ml human TNFα (Biolegend), 1 μM SMAC-mimetics (Birinapant, Chemietek), and 20 μM zVAD-fmk (Selleckchem, herein referred to as zVAD). For the induction of necroptosis in NIH3T3 cells, cells were incubated with 20 ng/ml TNF-α and 20 μM zVAD for indicated time points. […] Cells were seeded in six-well plates or petri dishes. […] After indicated time points, cells were collected and prepared for flow cytometry, immunoblotting, and/or LDH release assays.
(§2) Cells were harvested and the pellets were washed twice in PBS and stained with 5 μl of 7-AAD (BD Biosciences) and 5 μl of annexin-V-FITC (BD Biosciences) added to 100 μl annexin-V binding buffer (BD Biosciences). After 15 min, cells were recorded on the LSRII with the FACS Diva 6.1.1 software (BD Biosciences) and subsequently analyzed with the FlowJo v10 software (Tree Star).

MLKL = test: Western blot of pMLKL (S358) in TSZ-treated HT29 cells; assay type: cell-based, human; settings: Nec-1s 10 µM, Fer-1 1 µM, Nec-1f 10 µM
Description: as §1
(§3) Cells were lysed in ice-cold 10 mM Tris-HCl, pH 7.5, 50 mM NaCl, 1% Triton X-100, 30 mM sodium pyrophosphate, 50 mM NaF, 100 μM Na3VO4, 2 μM ZnCl2, and 1 mM phenylmethylsulfonyl fluoride (PMSF, modified Frackelton buffer) for 30 min on ice. Insoluble material was removed by centrifugation (14 000×g, 30 min, 4 °C). Protein concentration was determined using a commercial Bradford assay kit according to the manufacturer’s instructions (Thermo Fisher). Equal amounts of protein (typically 30 μg per lane) were resolved on a 4%−15% gradient SDS/PAGE gel and transferred to a PVDF membrane (BIO-RAD). Primary antibody incubation was performed for anti-pS166-RIPK1 (Cell Signaling, Cat# 65746, 1:1000 dilution), anti-pS358-MLKL, (Abcam, ab187091, 1:1000 dilution), anti-MLKL (Genetex, GTX107538, 1:1000 dilution) and anti-β-Actin (Cell Signaling, Cat# 3700S, 1:1000 dilution). Secondary antibodies (anti-mouse, HRP-linked antibody, Cell Signaling, Cat# 7076S; anti-rabbit, HRP-linked antibody, Cell Signaling, Cat# 7074S) were applied at concentrations of 1:5.000 (also see Supplementary Table 1 for details). Proteins were then visualized by enhanced chemiluminescence (ECL; Amersham Biosciences).

RIPK1 = test: Western blot of pRIPK1 (S166) in TSZ-treated HT29 cells; assay type: cell-based, human; settings: Nec-1s 10 µM, Fer-1 1 µM, Nec-1f 10 µM
Description: as §1, §3

HT1080 cells [2] = test: Ferroptosis inducers (FINs)/ferroptocide, 7-AAD/annexin V flow cytometry; assay type: cell-based, human; settings: Nec-1s 30 µM, Nec-1f 30 µM; for double-negative events (7-AAD/annexin V): alone (DMSO) or with Fer-1 1 µM
NIH3T3 cells [3] = test: as above; assay type: cell-based, murine; settings: alone (DMSO) or with Fer-1 1 µM, Nec-1s 30 µM, Nec-1f 30 µM
Description: as §1, §2

NIH3T3 cells [4] = test: Simultaneous ferroptosis and necroptosis (RSL3 plus TZ), 7-AAD/annexin V flow cytometry; assay type: cell-based, murine; settings: NIH3T3, 16 h
Description: as §1, §2

HT1080 cells [5] = test: CellTiter-Glo luminescent cell viability assay (ATP), dose-response; assay type: cell-based, human
Description: Cells were plated in an opaque-walled 96-well plate and treatment with ferroptosis inducers and/or ferroptosis inhibitors was initiated 24 h later. […] Here, the reaction agent was directly added to the wells, mixed on an orbital shaker for 2 min, and then incubated at room temperature for 10 min. The luminescence was detected using a Promega GloMax® instrument.

[6] = tested on: Mouse cortical tubule cells (MCT); test: FINs/ferroptocide, 7-AAD/annexin V flow cytometry; assay type: cell-based; settings: for double-negative events (7-AAD/annexin V): MCT, alone (DMSO) or with Fer-1 1 µM, Nec-1s 30 µM, Nec-1f 30 µM
Description: as §1, §2

CD10-135 cells = test: FINs/ferroptocide, LDH release assay; assay type: cell-based, human; set-up: LDH release: unit not given here; settings: for LDH release: Nec-1f 30 µM
NIH3T3 cells [7] = test: Ferroptosis inducers (FINs)/ferroptocide, 7-AAD/annexin V flow cytometry; assay type: cell-based, murine; settings: for cells in 7-AAD/annexin V flow cytometry (FigS9b): individual replicates

CCOC(=O)c1ccc(NC2CCCCC2)c(N)c1 [Fer-1, ferrostatin-1]
ΔSTY-BODIPY ([1]; time 53820 s): -0.3745 µM
ΔSTY-BODIPY ([1]; time 53880 s): -0.3737 µM
ΔSTY-BODIPY ([1]; time 53940 s): -0.3729 µM
ΔSTY-BODIPY ([1]; time 54000 s): -0.3705 µM
Protection against TSZ-induced necroptosis (7-AAD/annexin V, words) (HT29 cells): did not provide protection against necroptosis
Phosphorylation of MLKL (pS358), western blot (MLKL): did not prevent MLKL-phosphorylation
Phosphorylation of RIPK1 at S166, western blot (RIPK1): RIPK1 S166 phorphorylation was increased
double-negative events (7-AAD/annexin V) (HT1080 cells [2]; HT1080, 1.13 µM RSL3 6 h): 92.2% and 77.7% and 91.5% and 91%
double-negative events (7-AAD/annexin V) (HT1080 cells [2]; HT1080, 5 µM erastin 24 h): 91.8% and 92.7%
double-negative events (7-AAD/annexin V) (HT1080 cells [2]; HT1080, 10 µM FIN56 24 h): 88.3% and 93.1% and 90%
double-negative events (7-AAD/annexin V) (HT1080 cells [2]; HT1080, 10 µM FINO2 24 h): 90.8% and 87.7% and 89.4%
double-negative events (7-AAD/annexin V) (HT1080 cells [2]; HT1080, 10 µM ferroptocide 24 h): 71.3% and 77%
Inhibition of cell death induction by FINs/ferroptocide (HT1080 cells [2]; HT1080, Fer-1 1 µM): inhibition of cell death induction
double-negative events (7-AAD/annexin V) (NIH3T3 cells [3]; NIH3T3, 1.13 µM RSL3 6 h): 90.9% and 88.3% and 95.7% and 97.7% and 79%
double-negative events (7-AAD/annexin V) (NIH3T3 cells [3]; NIH3T3, 5 µM erastin 24 h): 93.3% and 78.4% and 95.1% and 95.2%
double-negative events (7-AAD/annexin V) (NIH3T3 cells [3]; NIH3T3, 10 µM FIN56 24 h): 94.7% and 91.5% and 96.4%
double-negative events (7-AAD/annexin V) (NIH3T3 cells [3]; NIH3T3, 10 µM FINO2 24 h): 79% and 79.9% and 82.9% and 91%
Rescue from necrosis induced by RSL3 plus TZ (NIH3T3 cells [4]): fail to rescue
ATP luminescence (CellTiterGlo) (HT1080 cells [5]; HT1080 + Erastin, inhibitor concentration 0.01 (unit not given)): 8.302%
ATP luminescence (CellTiterGlo) (HT1080 cells [5]; HT1080 + Erastin, inhibitor concentration 0.1 (unit not given)): 100.351%
ATP luminescence (CellTiterGlo) (HT1080 cells [5]; HT1080 + Erastin, inhibitor concentration 1 (unit not given)): 97.0601%
ATP luminescence (CellTiterGlo) (HT1080 cells [5]; HT1080 + Erastin, inhibitor concentration 10 (unit not given)): 92.1314%
ATP luminescence (CellTiterGlo) (HT1080 cells [5]; HT1080 + Erastin, inhibitor concentration 30 (unit not given)): 88.0064%
ATP luminescence (CellTiterGlo) (HT1080 cells [5]; HT1080 + Ferroptocide, inhibitor concentration 0.01 (unit not given)): 2.0385% and 1.258%
ATP luminescence (CellTiterGlo) (HT1080 cells [5]; HT1080 + RSL3, inhibitor concentration 0.01 (unit not given)): 46.842% and 51.9737%
ATP luminescence (CellTiterGlo) (HT1080 cells [5]; HT1080 + RSL3, inhibitor concentration 0.1 (unit not given)): 61.3859% and 117.078%
ATP luminescence (CellTiterGlo) (HT1080 cells [5]; HT1080 + RSL3, inhibitor concentration 1 (unit not given)): 60.0511% and 109.723%
ATP luminescence (CellTiterGlo) (HT1080 cells [5]; HT1080 + RSL3, inhibitor concentration 10 (unit not given)): 58.2722% and 113.348%
Effect on RSL3- and FINO2-induced ferroptosis ([6]; MCT cells): reversed
double-negative events (7-AAD/annexin V) ([6]; 1.13 µM RSL3 6 h): 96.6% and 93.5% and 69%
double-negative events (7-AAD/annexin V) ([6]; 5 µM erastin 24 h): 79.5% and 84.2% and 82.8% and 86.9%
double-negative events (7-AAD/annexin V) ([6]; 10 µM FIN56 24 h): 89.5% and 93.6% and 90.5%
double-negative events (7-AAD/annexin V) ([6]; 10 µM FINO2 24 h): 96% and 77.1% and 92.8% and 95.9% and 89.7%
double-negative events (7-AAD/annexin V) ([6]; 10 µM ferroptocide 24 h): 86.2% and 85.5% and 72.2% and 89.6% and 67.8% and 73.5%
LDH release (CD10-135 cells; CD10-135, FIN56 alone (FIN) or with Fer-1, Nec-1s): 8.38 and 8.509 and 10.9286
LDH release (CD10-135 cells; CD10-135, FINO2 alone (FIN) or with Fer-1, Nec-1s): 8.33 and 7.093 and 7.5109
LDH release (CD10-135 cells; CD10-135, RSL3 alone (FIN) or with Fer-1, Nec-1s): 6.44 and 3.43
LDH release (CD10-135 cells; CD10-135, ferroptocide alone (FIN) or with Fer-1, Nec-1s): 30.26 and 29.1563
Effect on FIN-induced LDH release (CD10-135 cells; CD10-135 cells): reversed
Effect on the phenotype induced by ferroptocide (CD10-135 cells; CD10-135 cells): reversed the phenotype
cells in 7-AAD/annexin V flow cytometry (FigS9b) (NIH3T3 cells [7]; Erastin-induced ferroptosis): 95.0% and 94.0% and 92.0%
cells in 7-AAD/annexin V flow cytometry (FigS9b) (NIH3T3 cells [7]; FIN56-induced ferroptosis): 94.1% and 94.0%
cells in 7-AAD/annexin V flow cytometry (FigS9b) (NIH3T3 cells [7]; FINO2-induced ferroptosis): 90.0% and 90.2%
cells in 7-AAD/annexin V flow cytometry (FigS9b) (NIH3T3 cells [7]; Ferroptocide-induced cell death): 93.0% and 79.0%
double-negative events (7-AAD/annexin V) (NIH3T3 cells [7]; NIH3T3, 10 µM ferroptocide 24 h, alone (DMSO) or with Fer-1 1 µM, Nec-1s 30 µM, Nec-1f 30 µM): 76.5% and 92.2% and 95.9% and 92.6%
cells in 7-AAD/annexin V flow cytometry (FigS9b) (NIH3T3 cells [7]; RSL3-induced ferroptosis): 95.0% and 92.0%
